Results taken from patent US20220315578A1, “BRD9 BIFUNCTIONAL DEGRADERS AND THEIR METHODS OF USE” (NOVARTIS AG, priority 2019, published 2022).

Target: T1, BRD9-GFP (Homo sapiens, UniProt Q9H8M2)
T1 construct: CHYSEL (2A cis-acting hydrolase element) remnant after GFP; mCherry is split off as a separate protein (C); expressed in transfected cells; host or cells: HEK293A cells (Invitrogen R70507), lentiviral transduction with pLenti6-BRD9-GFP-CHYSEL-mCherry, blasticidin selection
T1 sequence (Q9H8M2 1-597): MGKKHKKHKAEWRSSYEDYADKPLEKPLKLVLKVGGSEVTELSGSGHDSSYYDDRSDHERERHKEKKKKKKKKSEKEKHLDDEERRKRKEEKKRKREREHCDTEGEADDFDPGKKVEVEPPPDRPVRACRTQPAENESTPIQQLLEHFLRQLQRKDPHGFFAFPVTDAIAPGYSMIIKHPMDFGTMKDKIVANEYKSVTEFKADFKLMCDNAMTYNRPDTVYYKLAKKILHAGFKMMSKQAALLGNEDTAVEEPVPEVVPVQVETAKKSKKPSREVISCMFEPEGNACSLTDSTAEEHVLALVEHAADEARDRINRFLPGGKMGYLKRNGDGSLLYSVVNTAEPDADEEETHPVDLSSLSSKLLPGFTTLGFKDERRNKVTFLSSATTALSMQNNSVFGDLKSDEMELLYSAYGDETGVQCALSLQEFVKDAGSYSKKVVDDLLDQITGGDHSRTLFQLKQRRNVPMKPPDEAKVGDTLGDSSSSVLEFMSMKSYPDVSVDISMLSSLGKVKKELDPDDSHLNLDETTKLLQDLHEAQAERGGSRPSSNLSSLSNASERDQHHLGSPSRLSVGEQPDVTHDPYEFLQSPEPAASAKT
Experiment: BRD9-GFP protein abundance flow cytometry assay in HEK293A cells
Format: cell-based
Settings: HEK293A-BRD9-GFP-CHYSEL-mCherry cells; for BRD9 Deg Amax %: 24 h, % protein remaining at the concentration at which maximum degradation is seen; for DC50: 24 h at 37° C., 10-point 1:3 dilution, concentration at which 50% maximal degradation was observed
Procedure, shortened: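 HEK293A cells stably express bicistronic BRD9-GFP-CHYSEL-mCherry and received 24 h treatment at 37° C with a 10-point, 3-fold dilution series from […], in 0.1% DMSO and duplicate. Median GFP/mCherry ratio of 5,000 single cells by flow cytometry, normalized to mCherry-only cells (0%) and DMSO (100%), gave DC50 and Amax (% protein remaining).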

Compound: CCCCn1cc(-c2cc(OC)c(OC3CCN(CC4CCN(C(=O)c5ccc(OC)c(N6CCC(=O)NC6=O)c5)CC4)CC3)c(OC)c2)c2ccncc2c1=O [Compound B10, 1-(5-(4-((4-(4-(2-butyl-1-oxo-1,2-dihydro-2,7-naphthyridin-4-yl)-2,6-dimethoxyphenoxy)piperidin-1-yl)methyl)piperidine-1-carbonyl)-2-methoxyphenyl)dihydropyrimidine-2,4(1H,3H)-dione]
- BRD9 Deg Amax %: 16.55%
- DC50: 6 nM

Compound: COc1cc(-c2cn(C)c(=O)c3cnccc23)c(OC)cc1CN1CCC(OC2CCN(CCn3cccc(CN4CCC(=O)NC4=O)c3=O)CC2)CC1 [Compound C1, 1-((1-(2-(4-(1-(2,5-Dimethoxy-4-(2-methyl-1-oxo-1,2-dihydro-2,7-naphthyridin-4-yl)benzyl)piperidin-4-yloxy)piperidin-1-yl)ethyl)-2-oxo-1,2-dihydropyridin-3-yl)methyl)dihydropyrimidine-2,4(1H,3H)-dione]
- BRD9 Deg Amax %: 13.59%
- DC50: 29 nM

Compound: COc1cc(-c2cn(C)c(=O)c3cnccc23)cc(OC)c1CN1CCC(OC2CCN(CCn3cccc(CN4CCC(=O)NC4=O)c3=O)CC2)CC1 [Compound C2, 1-((1-(2-(4-((1-(2,6-dimethoxy-4-(2-methyl-1-oxo-1,2-dihydro-2,7-naphthyridin-4-yl)benzyl)piperidin-4-yl)oxy)piperidin-1-yl)ethyl)-2-oxo-1,2-dihydropyridin-3-yl)methyl)dihydropyrimidine-2,4(1H,3H)-dione]
- BRD9 Deg Amax %: 11.95%
- DC50: 29 nM

Compound: COc1cc(-c2cn(C)c(=O)c3cnccc23)c(OC)cc1CCN1CCC(OC2CCN(CCn3cccc(CN4CCC(=O)NC4=O)c3=O)CC2)CC1 [Compound C3, 1-((1-(2-(4-((1-(2,5-dimethoxy-4-(2-methyl-1-oxo-1,2-dihydro-2,7-naphthyridin-4-yl)phenethyl)piperidin-4-yl)oxy)piperidin-1-yl)ethyl)-2-oxo-1,2-dihydropyridin-3-yl)methyl)dihydropyrimidine-2,4(1H,3H)-dione]
- BRD9 Deg Amax %: 17.50%
- DC50: 77 nM

Compound: COc1cc(-c2cn(C)c(=O)c3cnccc23)cc(OC)c1CCN1CCC(OC2CCN(CCn3cccc(CN4CCC(=O)NC4=O)c3=O)CC2)CC1 [Compound C4, 1-((1-(2-(4-((1-(2,6-dimethoxy-4-(2-methyl-1-oxo-1,2-dihydro-2,7-naphthyridin-4-yl)phenethyl)piperidin-4-yl)oxy)piperidin-1-yl)ethyl)-2-oxo-1,2-dihydropyridin-3-yl)methyl)dihydropyrimidine-2,4(1H,3H)-dione]
- BRD9 Deg Amax %: 19.82%
- DC50: 17 nM

Compound: CCCCn1cc(-c2cc(OC)c(CN3CCC(OC4CCN(CCn5cccc(CN6CCC(=O)NC6=O)c5=O)CC4)CC3)cc2OC)c2ccncc2c1=O [Compound D1, 1-((1-(2-(4-((1-(4-(2-butyl-1-oxo-1,2-dihydro-2,7-naphthyridin-4-yl)-2,5-dimethoxybenzyl)piperidin-4-yl)oxy)piperidin-1-yl)ethyl)-2-oxo-1,2-dihydropyridin-3-yl)methyl)dihydropyrimidine-2,4(1H,3H)-dione]
- BRD9 Deg Amax %: 14.78%
- DC50: 16 nM

Compound: CCCCn1cc(-c2cc(OC)c(CN3CCC(OC4CCN(CCn5cccc(CN6CCC(=O)NC6=O)c5=O)CC4)CC3)c(OC)c2)c2ccncc2c1=O [Compound D2, 1-((1-(2-(4-((1-(4-(2-butyl-1-oxo-1,2-dihydro-2,7-naphthyridin-4-yl)-2,6-dimethoxybenzyl)piperidin-4-yl)oxy)piperidin-1-yl)ethyl)-2-oxo-1,2-dihydropyridin-3-yl)methyl)dihydropyrimidine-2,4(1H,3H)-dione]
- BRD9 Deg Amax %: 13.05%
- DC50: 15 nM

Compound: CCCCn1cc(-c2cc(OC)c(CCN3CCC(OC4CCN(CCn5cccc(CN6CCC(=O)NC6=O)c5=O)CC4)CC3)cc2OC)c2ccncc2c1=O [Compound D3, 1-((1-(2-(4-((1-(4-(2-butyl-1-oxo-1,2-dihydro-2,7-naphthyridin-4-yl)-2,5-dimethoxyphenethyl)piperidin-4-yl)oxy)piperidin-1-yl)ethyl)-2-oxo-1,2-dihydropyridin-3-yl)methyl)dihydropyrimidine-2,4(1H,3H)-dione]
- BRD9 Deg Amax %: 17.62%
- DC50: 47 nM

Compound: CCCCn1cc(-c2cc(OC)c(CCN3CCC(OC4CCN(CCn5cccc(CN6CCC(=O)NC6=O)c5=O)CC4)CC3)c(OC)c2)c2ccncc2c1=O [Compound D4, 1-((1-(2-(4-((1-(4-(2-butyl-1-oxo-1,2-dihydro-2,7-naphthyridin-4-yl)-2,6-dimethoxyphenethyl)piperidin-4-yl)oxy)piperidin-1-yl)ethyl)-2-oxo-1,2-dihydropyridin-3-yl)methyl)dihydropyrimidine-2,4(1H,3H)-dione]
- BRD9 Deg Amax %: 16.34%
- DC50: 3 nM

Compound: Cn1cc(-c2cc(F)c(CN3CCC(OC4CCN(CCn5cccc(CN6CCC(=O)NC6=O)c5=O)CC4)CC3)cc2F)c2ccncc2c1=O [Compound E1, 1-((1-(2-(4-((1-(2,5-difluoro-4-(2-methyl-1-oxo-1,2-dihydro-2,7-naphthyridin-4-yl)benzyl)piperidin-4-yl)oxy)piperidin-1-yl)ethyl)-2-oxo-1,2-dihydropyridin-3-yl)methyl)dihydropyrimidine-2,4(1H,3H)-dione]
- BRD9 Deg Amax %: 19.40%
- DC50: 6 nM

Compound: COc1cc(-c2cn(C)c(=O)c3cnccc23)c(OC)cc1CN1CCC(O[C@@H]2CCN(CCn3cccc(CN4CCC(=O)NC4=O)c3=O)C[C@H]2F)CC1 [Compound E2, 1-((1-(2-((3R,4R)-4-((1-(2,5-dimethoxy-4-(2-methyl-1-oxo-1,2-dihydro-2,7-naphthyridin-4-yl)benzyl)piperidin-4-yl)oxy)-3-fluoropiperidin-1-yl)ethyl)-2-oxo-1,2-dihydropyridin-3-yl)methyl)dihydropyrimidine-2,4(1H,3H)-dione]
- BRD9 Deg Amax %: 12.45%
- DC50: 35 nM

Compound: CCCCn1cc(-c2ccc(O[C@H]3CC[C@@H](OC4CCN(C(=O)c5ccc(OC)c(N6CCC(=O)NC6=O)c5)CC4)CC3)cc2)c2ccncc2c1=O [Compound E3, 1-(5-(4-(((cis)-4-(4-(2-butyl-1-oxo-1,2-dihydro-2,7-naphthyridin-4 yl)phenoxy)cyclohexyl)oxy)piperidine-1-carbonyl)-2-methoxyphenyl)dihydropyrimidine-2,4(1H,3H)-dione]
- BRD9 Deg Amax %: 18.38%
- DC50: 2 nM

Compound: CCCCCCn1cc(-c2cc(OC)c(CCN3CCC(OC4CCN(C(=O)c5ccc(OC)c(N6CCC(=O)NC6=O)c5)CC4)CC3)c(OC)c2)c2ccncc2c1=O [Compound E4, 1-(5-(4-((1-(4-(2-hexyl-1-oxo-1,2-dihydro-2,7-naphthyridin-4-yl)-2,6-dimethoxy-phenethyl)piperidin-4-yl)oxy)piperidine-1-carbonyl)-2-meth-oxyphenyl)dihydro-pyrimidine-2,4(1H,3H)-dione]
- BRD9 Deg Amax %: 19.61%
- DC50: 34 nM

Compound: CCCn1cc(-c2ccc(CN3CC[C@@H](OC4CCN(C(=O)c5cccc(N6CCC(=O)NC6=O)c5)CC4)[C@H](F)C3)cc2)c(C)c(C)c1=O [Compound E5, 1-(3-(4-(((3R,4R)-1-(4-(4,5-dimethyl-6-oxo-1-propyl-1,6-dihydropyridin-3-yl)benzyl)-3-fluoropiperidin-4-yl)oxy)piperidine-1-carbonyl)phenyl)dihydropyrimidine-2,4(1H,3H)-dione]
- BRD9 Deg Amax %: 14.46%
- DC50: 5 nM

Compound: CCCCn1cc(-c2cc(F)c(OC3CCN(CCC4CCN(C(=O)c5ccc(OC)c(N6CCC(=O)NC6=O)c5)CC4)CC3)c(F)c2)c2ccncc2c1=O [Compound E6, 1-(5-(4-(2-(4-(4-(2-butyl-1-oxo-1,2-dihydro-2,7-naphthyridin-4-yl)-2,6-difluorophenoxy)piperidin-1-yl)ethyl)piperidine-1-carbonyl)-2-methoxyphenyl)dihydropyrimidine-2,4(1H,3H)-dione]
- BRD9 Deg Amax %: 21.29%
- DC50: 9 nM

Compound: CCCn1cc(-c2cc(OC)c(CCN3CC[C@@H](OC4CCN(CCn5cccc(CN6CCC(=O)NC6=O)c5=O)CC4)[C@H](F)C3)c(OC)c2)c(C)c(C)c1=O [Compound E7, 1-((1-(2-(4-(((3R,4R)-1-(4-(4,5-Dimethyl-6-oxo-1-propyl-1,6-dihydropyridin-3-yl)-2,6-dimethoxyphenethyl)-3-fluoropiperidin-4-yl)oxy)piperidin-1-yl)ethyl)-2-oxo-1,2-dihydropyridin-3-yl)methyl)dihydropyrimidine-2,4(1H,3H)-dione]
- BRD9 Deg Amax %: 18.57%
- DC50: 4 nM
